As usually defined, the melting point is the temperature of the solid-liquid transition. As for `OCC1CCn2c(cc3ccccc32)C1` (centres undefined), the melting point lay within 110 to 111 °C.
In the case of `CCOC(=O)C(CC)(CC)CCCS(N)(=O)=O` it was 66 to 67 °C; in that of `O=C(c1ccccc1)c1cc2c(cc1O)C(CO)(C(=O)O)CC2` (centres undefined), 104 to 110 °C; in that of `NC(=O)N(O)Cc1ccc(OCCc2csc(-c3ccccc3)n2)cc1`, 137 to 138 °C.
Compound `CCOC=Nc1c(C(=O)OCC)cnn1C` gave a melting point of 32 to 34 °C.
In the case of `Clc1ccc(Cn2cnc3c(-c4ccco4)ncnc32)cc1Cl` it was 183 to 185 °C.
In the case of `CCCCn1c(COc2ccccc2)nc2c(N)nc3ccccc3c21` it was 172 to 173 °C; in that of `CC1(C)COP(=O)(Cc2ccc([N+](=O)[O-])cc2)OC1`, 176 to 177 °C; in that of `CC(C)(C)OC(=O)NCCc1ccc(Oc2cc(C#N)ccn2)cc1`, 92 to 96 °C.
In the case of `CC(C)Oc1cc(-n2c(=O)cc(C(F)(F)F)[nH]c2=O)c(F)cc1Cl` it was 195 to 197 °C; in that of `N#Cc1cncc(C2OC(CO)C(O)C2O)c1` (centres undefined), 169 to 171 °C.
`COc1ccccc1Nc1cccc(C(=O)Nc2ccccc2)c1` registered a melting point of 153 to 154 °C.
In the case of `COc1ccc(CCNc2nc(Cl)nc(NCCc3ccc(OC)c(OC)c3)n2)cc1OC` it was 186 °C; in that of `COc1ccnc(C(=O)c2[nH]c3cc(Cl)ccc3c2N)c1`, 195 to 196 °C; in that of `Nc1cc(S(=O)c2ccccc2)ccc1Cl` (centres undefined), 89 to 90 °C.
In the case of `CCCCCCC(C(=O)O)c1cccc(Oc2ccccc2C)c1O` (centres undefined) it was 65 to 66 °C.
In the case of `O=C(CCl)Nc1cccc([N+](=O)[O-])c1` it was 110 to 112 °C; in that of `N#CCSc1nnc2ccccn12`, 121 to 123 °C; in that of `CCCCCCCCCCCCc1ccc(S(=O)(=O)Nc2nnc(C(=O)OCC)s2)cc1`, 96 to 97 °C.
For `CCCCc1nc2cccc(C(=O)OCc3ccncc3)c2n1Cc1ccc(-c2ccccc2-c2nnn[nH]2)cc1`, the melting point was 179 to 180 °C.
In the case of `CC(=O)c1ccc(-c2ccc(F)cc2F)c(N)c1` it was 93 to 95 °C; in that of `Nc1ccc(Oc2ccc3sncc3c2)c(C(F)(F)F)c1`, 136 °C; in that of `CCC(C(O)c1ccc(Cl)cc1)n1ncn(-c2ccc(N3CCN(c4ccccn4)CC3)nc2)c1=O` (centres undefined), 171 °C.
In the case of `Cc1cc(OCc2sc(-c3ccc(C(F)(F)F)cc3)nc2C)ccc1Cc1nn[nH]n1` it was 165 °C; in that of `Fc1ccc(-c2c[nH]cc2-c2ccc(F)cc2)cc1`, 142 °C; in that of `CC(SC(=O)c1ccccc1)C(=O)c1ccccc1NCC(=O)O` (centres undefined), 149 to 151 °C.
In the case of `CC(C)OC(=O)C1=C2SCC(=CC(=O)Sc3ccccc3)N2CC1C` (centres undefined) it was 153 to 154 °C.
The compound `CC(C)NC(=O)N1C2=NC(C)(C)N(C(C)C)C(=O)N2c2ccccc21` had a melting point of 80 to 89 °C.
With `CC(C(=O)O)c1ccc(Oc2ccc(F)cc2)c(Cl)c1` (centres undefined), the melting point was 68 to 70 °C.
In the case of `Cc1ccc(Cn2[nH]c(N)cc2=O)cc1C(F)(F)F` it was 103 °C.
The compound `CC(=O)OC1CCCCC1n1cnc2cc(Cl)c(Cl)cc21` (centres undefined) registered a melting point of 145 to 147 °C.
In the case of `CCc1c(Oc2ccc(C(F)(F)F)cc2[N+](=O)[O-])nn(C(=O)NC)c1C` it was 81 to 82 °C; in that of `CCOC(=O)C1=C(C)NC(N=CN(C)C)=C(C(=O)OCC)C1c1ccccc1[N+](=O)[O-]` (centres undefined), 126 °C; in that of `Cc1cc(COc2c(Cl)cc(CCl)cc2Cl)oc(=O)c1`, 136 °C.
In the case of `CCCc1ccc(-c2nc(-c3ccccc3Cl)nn2C)c(Cl)c1` it was 70 to 72 °C; in that of `CN(CC(N)=O)c1nccc(-c2ccc(C(=O)NCCc3ccc4[nH]cc(C(=N)N)c4c3)cc2)n1`, 96 to 98 °C.
In the case of `O=[N+]([O-])c1cn2c(n1)O[C@@H](COc1ccc(N3CCC(Nc4ccc(Oc5ccc(OC(F)(F)F)cc5)cc4)CC3)cc1)CC2` it was 120 to 121 °C; in that of `CC1(c2ccccc2)OC(=S)Nc2ccc(-c3cccc(Cl)c3)cc21` (centres undefined), 202 to 203 °C; in that of `C[C@@H](Nc1ncnc2cc(N)ncc12)c1ccccc1`, 232 °C.
With `COc1ccc(CC2NC(=O)NC2=O)cc1OC1CCCC1` (centres undefined), the melting point was 151 to 153 °C.
In the case of `C=CCOC(=O)c1ccc(O)c(C23CC4CC(CC(C4)C2)C3)c1F` it was 219 to 222 °C; in that of `CCOC(=O)c1sc(Cl)nc1-c1ccc([N+](=O)[O-])cc1`, 146 to 148 °C.
In the case of `O=C(O)CCCN1CCN(C2=Nc3ccccc3Cc3ccccc32)CC1` it was 207 to 208 °C; in that of `O=S(=O)(NCCCCCCCCCCOc1ccc(-n2ccnc2)cc1)c1ccc2ccccc2c1`, 112 to 115 °C.
In the case of `CC(=O)NCCNc1nc(-c2ccccc2)nc2[nH]c(C(=O)N3CCOCC3)cc12` it was 250 °C.
The compound `CC1C(C)(C)C2=C(c3ncncc3CC2)C1(C)C` (centres undefined) gave a melting point of 80 °C.
In the case of `CC(=O)NC[C@H]1CN(c2ccc(N3CCC(=O)N(C)CC3)c(F)c2)C(=O)O1` it was 203 to 204 °C.
The compound `CN1C(=O)Cc2cccc(C(=O)c3ccccc3)c21` showed a melting point of 89 to 90.5 °C.
In the case of `Cc1cc(CCNc2ncnc3c(F)ccc(F)c23)ccc1O` it was 244 to 251 °C.
Regarding `Cc1ccccc1-c1cc(Cl)cc2c1OC(CN)C2` (centres undefined), the melting point lay in the range of 160 to 163 °C.
In the case of `COc1ccc(N2Cc3cnc(Nc4ccccc4)nc3N([C@@H](C)CO)C2=O)c(F)c1` it was 188 to 198 °C; in that of `c1ccc(C(OC2CCN(c3ccc4ncnn4n3)CC2)c2ccccc2)cc1`, 137 to 139 °C; in that of `Cc1cccc(C)c1CNc1cc(C(=O)N(C)C)cc2c1nc(C)n2C`, 142 to 143 °C.
In the case of `CCOC(=O)c1cc(NCc2ccccc2)c(N2CCOCC2)c(S(N)(=O)=O)c1` it was 185 to 186 °C; in that of `CC(=O)N(C)c1c(C(=O)c2cccc(Cl)c2)[nH]c2cc(Cl)ccc12`, 202 to 203 °C; in that of `CCCC1(CCC)c2ccccc2-c2cc(NC(=O)c3cc4oc5ccccc5c4cc3OC)c(O)cc21`, 252 to 255 °C.
In the case of `COc1ccc(-c2nn(Cc3ccccc3)c(=O)cc2-c2ccc(OC)c(F)c2)cc1` it was 110 to 112 °C; in that of `CCCCCC=CCC=CCCCCCCCCBr`, 35 °C.
On to `CCOC(=O)C(C)(C)OCc1oc(-c2ccc(Cl)cc2)nc1C`, for which the melting point was in the range of 75 to 76 °C.
`COC(=O)Cc1c(Cl)cc(C(=O)c2ccc(C)cc2)n1C` displayed a melting point of 144 to 146 °C.
In the case of `O=C1Cc2cc(CCN3CCN(c4nsc5ccccc45)CC3)ccc2N1` it was 288 °C; in that of `Cc1cc2oc(=O)c3c(c2cc1C)CCN(CCN1CCCCC1)C3`, 142 to 145 °C; in that of `CCOC(=O)C=Cc1ccc(OCc2nc(-c3ccco3)oc2C)c(OC)c1`, 142 to 143 °C.
In the case of `Cc1ccc(S(=O)(=O)Nc2cc3c(c(C(=O)O)c2)NCCC3)cc1` it was 251 °C.
Compound `O=C(NCCO)c1cccc(-c2ccc3c(c2)C(Oc2ccc(Cl)cc2Cl)CC3)c1` (centres undefined) registered a melting point of 155 to 156 °C.
In the case of `Cc1cc2c(-c3ccccc3F)nc(=O)[nH]c2s1` it was 282 to 284 °C; in that of `CC(C)(C)OC(=O)c1ncn2c1[C@@H]1CCCN1C(=O)c1cc(N)ccc1-2`, 223 to 224 °C; in that of `COc1c(C)c(OC(=O)c2c(C)c(C)c(OCCCOc3ccc(C(=O)O)cc3)c(C)c2OC)c(C)c(C)c1C(N)=O`, 267 to 268 °C.
In the case of `CCCCC[C@@H](CNC(=O)Nc1c(OC)ccc2c1CCCC2)c1cccc2c1OCO2` it was 137 to 138 °C; in that of `Cc1c(O)c(C)c(CS)c(C)c1CS`, 159 °C.
Regarding `CS(=O)(=O)c1csc(C(=O)C2C(=O)N(C(N)=O)c3ccc(Cl)cc32)c1` (centres undefined), the melting point lay in the range of 228 to 230 °C.
In the case of `COc1cnc(NS(=O)(=O)c2cccc(Cl)c2Cl)c(OC)n1` it was 138 to 139 °C; in that of `CNC(=O)n1c(=O)n(CCCN2CCN(C(c3ccccc3)c3ccccc3)CC2)c2ccccc21`, 153 °C; in that of `CCOC(=O)c1nc(NC(C)=O)sc1Cc1cccc(SC)c1`, 188 °C.
In the case of `CCCCCSc1cc(C(=O)O)cc(S(N)(=O)=O)c1Oc1ccccc1` it was 180 to 182 °C.
In the case of `CCOC(=O)C1=C(C)OC(N)=C(C(=O)OCC)C1c1cccc([N+](=O)[O-])c1` (centres undefined) it was 161 °C.
The compound `CCOC(=O)C(C)NC(=O)N(N(CCCl)S(C)(=O)=O)S(C)(=O)=O` (centres undefined) yielded a melting point of 111 to 112 °C.
In the case of `C[C@@H](c1ccc(Br)cc1)N(CC[C@](O)(CC(C)(C)O)c1ccccc1)C(=O)Oc1ccccc1` it was 129 to 131 °C.
Consider `Cc1cc(Oc2ccc(C(F)(F)F)cc2[N+](=O)[O-])n[nH]1`, for which the melting point lay in the range of 89 to 91 °C.
In the case of `CCCN1CC(NS(=O)(=O)N(CC)CC)CC2c3cccc4[nH]cc(c34)CC21` (centres undefined) it was 160 to 162 °C; in that of `CCCCCCCCCCCCCCCCOC[C@H]1CCO[C@H](c2ccccc2)O1`, 51 to 54 °C; in that of `O=C(Cn1nnc2ccccc21)Nc1ccc(-n2nc(C(F)(F)F)c(Cl)c2C2CC2)nc1`, 182 to 189 °C.
In the case of `CC1(C)Oc2ccc(C#N)cc2[C@@H](NC(=O)Nc2ccc3c(c2)CNC3)[C@@H]1O` it was 215 to 217 °C; in that of `Cc1nc(-c2cccc(Cl)c2)n(-c2ccc(S(N)(=O)=O)cc2)n1`, 146 to 147 °C.
In the case of `COC(=O)c1nc(C2CC2)nc(N)c1Cl` it was 147 to 148 °C; in that of `CC1(C)C=C(N2CCCC2=O)c2cc([N+](=O)[O-])ccc2O1`, 135 to 137 °C; in that of `CCCCNC(=O)N1N=C(c2ccc(N)cc2)c2cc(Cl)ccc2CC1C` (centres undefined), 89 to 91 °C.
Take `COC(=O)C1(NS(=O)(=O)c2ccc3c(Cl)cnc(Cl)c3c2)CCOCC1`: the melting point is 168 to 170 °C.
The compound `CNC(=O)NC1CCC(O)c2ccccc21` (centres undefined) yielded a melting point of 172 to 180 °C.

Values taken from a melting point compilation (Tetko et al.; mined from patent text by program, amines drawn as free bases though some values may be those of a salt).
